Several values for one entry are separate records, joined by “and”; a condition that tells them apart may be missing. Identical values can stand only once.
Each molecule was assayed on Hs578T (assay: normalised viability (% of control), CellTiter-Blue; higher = more viable cells (about 100 = DMSO control)). Settings: 10 nM; incubation time: 72 h.
How it was run: (§1)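 Compound dissolved in 5 µl medium was pre-loaded into 384-well plates, and breast cancer cell lines in 20 µl suspension were seeded on top and incubated 72 h. After adding 2.5 µl CellTiter-Blue reagent for 2 h at 37 °C, fluorescence was read at 560/590 nm. Plates were normalised to vehicle (100) and a positive kill control (0), with Z'-factor quality control. Each value is normalised viability at a single listed concentration from the series.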
For `C[C@]12C=CC(=O)C=C1CC[C@@H]1[C@@H]2[C@@H](O)C[C@@]2(C)[C@H]1CC[C@]2(O)C(=O)CO` [Prednisolone], the normalised viability was 111%.

Same assay, conditions: 100 nM; incubation time: 72 h
With `O=C1c2c(O)ccc(O)c2C(=O)c2c(NCCNCCO)ccc(NCCNCCO)c21` [Mitoxantrone] the normalised viability was 77.5%.
`CNC(=O)c1cc(Oc2ccc(NC(=O)Nc3ccc(Cl)c(C(F)(F)F)c3)cc2)ccn1` [Sorafenib] was tested, and the normalised viability was 109% and 123%.
In the case of `CCN(CC)CCNC(=O)c1c(C)[nH]c(/C=C2\C(=O)Nc3ccc(F)cc32)c1C` [Sunitinib], the normalised viability is reported as 103% and 113%.
`CC[C@@]1(O)C(=O)OCc2c1cc1n(c2=O)Cc2cc3c(CN(C)C)c(O)ccc3nc2-1` [Topotecan] was tested, and the normalised viability was 102%.

Same assay, conditions: 250 nM; incubation time: 72 h
In the case of `c1cc(CN2CCCNCCNCCCNCC2)ccc1CN1CCCNCCNCCCNCC1` [Plerixafor], the normalised viability is reported as 97.3%.

Same assay, conditions: 1000 nM; incubation time: 72 h
With `O=C1c2c(O)ccc(O)c2C(=O)c2c(NCCNCCO)ccc(NCCNCCO)c21` [Mitoxantrone] the normalised viability was 38.4%.
Molecule `Nc1ccccc1NC(=O)c1ccc(CNc2nccc(-c3cccnc3)n2)cc1` [Mocetinostat] has a normalised viability of 81.4%.
For `COc1nc(N)nc2c1ncn2[C@@H]1O[C@H](CO)[C@@H](O)[C@@H]1O` [Nelarabine], the normalised viability was 103% and 95.2%.
`Cc1ccc(Nc2nccc(N(C)c3ccc4c(C)n(C)nc4c3)n2)cc1S(N)(=O)=O` [Pazopanib] was tested, and the normalised viability was 98.1%.
`O=C(CCBr)N1CCN(C(=O)CCBr)CC1` [Pipobroman] was tested, and the normalised viability was 97%.
For `C[C@]12C=CC(=O)C=C1CC[C@@H]1[C@@H]2[C@@H](O)C[C@@]2(C)[C@H]1CC[C@]2(O)C(=O)CO` [Prednisolone], the normalised viability was 107%.
`CNC(=O)c1cc(Oc2ccc(NC(=O)Nc3ccc(Cl)c(C(F)(F)F)c3)cc2)ccn1` [Sorafenib] was tested, and the normalised viability was 101% and 87.8%.
`CCN(CC)CCNC(=O)c1c(C)[nH]c(/C=C2\C(=O)Nc3ccc(F)cc32)c1C` [Sunitinib] was tested, and the normalised viability was 108% and 107%.
For `CC[C@@]1(O)C(=O)OCc2c1cc1n(c2=O)Cc2cc3c(CN(C)C)c(O)ccc3nc2-1` [Topotecan], the normalised viability was 69.4%.

Same assay, conditions: 2500 nM; incubation time: 72 h
`c1cc(CN2CCCNCCNCCCNCC2)ccc1CN1CCCNCCNCCCNCC1` [Plerixafor] gave a normalised viability of 102%.

Same assay, conditions: 10000 nM; incubation time: 72 h
For `Nc1ccccc1NC(=O)c1ccc(CNc2nccc(-c3cccnc3)n2)cc1` [Mocetinostat], the normalised viability was 12.6%.
For `COc1nc(N)nc2c1ncn2[C@@H]1O[C@H](CO)[C@@H](O)[C@@H]1O` [Nelarabine], the normalised viability was 89.4% and 85.8%.
For `Cc1ccc(Nc2nccc(N(C)c3ccc4c(C)n(C)nc4c3)n2)cc1S(N)(=O)=O` [Pazopanib], the normalised viability was 90.8%.
`O=C(CCBr)N1CCN(C(=O)CCBr)CC1` [Pipobroman] showed a normalised viability of 95.8%.
Molecule `C[C@]12C=CC(=O)C=C1CC[C@@H]1[C@@H]2[C@@H](O)C[C@@]2(C)[C@H]1CC[C@]2(O)C(=O)CO` [Prednisolone] has a normalised viability of 107%.

The molecules below were run on MDA-MB-436 in the same assay as above. Settings: 1 nM; incubation time: 72 h.
How it was run: as §1
For `O=C1c2c(O)ccc(O)c2C(=O)c2c(NCCNCCO)ccc(NCCNCCO)c21` [Mitoxantrone], the normalised viability was 87.2%.
With `CNC(=O)c1cc(Oc2ccc(NC(=O)Nc3ccc(Cl)c(C(F)(F)F)c3)cc2)ccn1` [Sorafenib] the normalised viability was 92.8% and 87%.
`CCN(CC)CCNC(=O)c1c(C)[nH]c(/C=C2\C(=O)Nc3ccc(F)cc32)c1C` [Sunitinib] was tested, and the normalised viability was 94.5% and 114%.
Molecule `CC[C@@]1(O)C(=O)OCc2c1cc1n(c2=O)Cc2cc3c(CN(C)C)c(O)ccc3nc2-1` [Topotecan] has a normalised viability of 110%.

Same assay, conditions: 2.5 nM; incubation time: 72 h
Molecule `c1cc(CN2CCCNCCNCCCNCC2)ccc1CN1CCCNCCNCCCNCC1` [Plerixafor] has a normalised viability of 116%.

Same assay, conditions: 10 nM; incubation time: 72 h
For `Nc1ccccc1NC(=O)c1ccc(CNc2nccc(-c3cccnc3)n2)cc1` [Mocetinostat], the normalised viability was 94%.
In the case of `Cc1ccc(Nc2nccc(N(C)c3ccc4c(C)n(C)nc4c3)n2)cc1S(N)(=O)=O` [Pazopanib], the normalised viability is reported as 97.5%.
Work on `O=C(CCBr)N1CCN(C(=O)CCBr)CC1` [Pipobroman] yielded a normalised viability of 92.6%.
For `C[C@]12C=CC(=O)C=C1CC[C@@H]1[C@@H]2[C@@H](O)C[C@@]2(C)[C@H]1CC[C@]2(O)C(=O)CO` [Prednisolone], the normalised viability was 82.4%.

Same assay, conditions: 100 nM; incubation time: 72 h
`O=C1c2c(O)ccc(O)c2C(=O)c2c(NCCNCCO)ccc(NCCNCCO)c21` [Mitoxantrone] showed a normalised viability of 88.3%.
With `CNC(=O)c1cc(Oc2ccc(NC(=O)Nc3ccc(Cl)c(C(F)(F)F)c3)cc2)ccn1` [Sorafenib] the normalised viability was 103% and 80.7%.
For `CCN(CC)CCNC(=O)c1c(C)[nH]c(/C=C2\C(=O)Nc3ccc(F)cc32)c1C` [Sunitinib], the normalised viability was 85.8% and 110%.
`CC[C@@]1(O)C(=O)OCc2c1cc1n(c2=O)Cc2cc3c(CN(C)C)c(O)ccc3nc2-1` [Topotecan] gave a normalised viability of 75.5%.

Same assay, conditions: 250 nM; incubation time: 72 h
`c1cc(CN2CCCNCCNCCCNCC2)ccc1CN1CCCNCCNCCCNCC1` [Plerixafor] showed a normalised viability of 107%.

Same assay, conditions: 1000 nM; incubation time: 72 h
In the case of `O=C1c2c(O)ccc(O)c2C(=O)c2c(NCCNCCO)ccc(NCCNCCO)c21` [Mitoxantrone], the normalised viability is reported as 40.1%.
`Nc1ccccc1NC(=O)c1ccc(CNc2nccc(-c3cccnc3)n2)cc1` [Mocetinostat] showed a normalised viability of 61.2%.
In the case of `Cc1ccc(Nc2nccc(N(C)c3ccc4c(C)n(C)nc4c3)n2)cc1S(N)(=O)=O` [Pazopanib], the normalised viability is reported as 77.4%.
`O=C(CCBr)N1CCN(C(=O)CCBr)CC1` [Pipobroman] gave a normalised viability of 98.7%.
Work on `C[C@]12C=CC(=O)C=C1CC[C@@H]1[C@@H]2[C@@H](O)C[C@@]2(C)[C@H]1CC[C@]2(O)C(=O)CO` [Prednisolone] yielded a normalised viability of 73.5%.
In the case of `CNC(=O)c1cc(Oc2ccc(NC(=O)Nc3ccc(Cl)c(C(F)(F)F)c3)cc2)ccn1` [Sorafenib], the normalised viability is reported as 91% and 88.2%.
For `CCN(CC)CCNC(=O)c1c(C)[nH]c(/C=C2\C(=O)Nc3ccc(F)cc32)c1C` [Sunitinib], the normalised viability was 98.5% and 108%.
`CC[C@@]1(O)C(=O)OCc2c1cc1n(c2=O)Cc2cc3c(CN(C)C)c(O)ccc3nc2-1` [Topotecan] showed a normalised viability of 44.6%.

Same assay, conditions: 2500 nM; incubation time: 72 h
Work on `c1cc(CN2CCCNCCNCCCNCC2)ccc1CN1CCCNCCNCCCNCC1` [Plerixafor] yielded a normalised viability of 118%.

Same assay, conditions: 10000 nM; incubation time: 72 h
`Nc1ccccc1NC(=O)c1ccc(CNc2nccc(-c3cccnc3)n2)cc1` [Mocetinostat] was tested, and the normalised viability was 28.9%.
For `COc1nc(N)nc2c1ncn2[C@@H]1O[C@H](CO)[C@@H](O)[C@@H]1O` [Nelarabine], the normalised viability was 91.2% and 94.8%.
`Cc1ccc(Nc2nccc(N(C)c3ccc4c(C)n(C)nc4c3)n2)cc1S(N)(=O)=O` [Pazopanib] was tested, and the normalised viability was 77.4%.
`O=C(CCBr)N1CCN(C(=O)CCBr)CC1` [Pipobroman] gave a normalised viability of 81.7%.
`C[C@]12C=CC(=O)C=C1CC[C@@H]1[C@@H]2[C@@H](O)C[C@@]2(C)[C@H]1CC[C@]2(O)C(=O)CO` [Prednisolone] showed a normalised viability of 108%.

The molecules below were run on MFM-223 in the same assay as above. Settings: 1 nM; incubation time: 72 h.
How it was run: as §1
With `O=C1c2c(O)ccc(O)c2C(=O)c2c(NCCNCCO)ccc(NCCNCCO)c21` [Mitoxantrone] the normalised viability was 73.8%.
For `CNC(=O)c1cc(Oc2ccc(NC(=O)Nc3ccc(Cl)c(C(F)(F)F)c3)cc2)ccn1` [Sorafenib], the normalised viability was 94.9% and 108%.
With `CCN(CC)CCNC(=O)c1c(C)[nH]c(/C=C2\C(=O)Nc3ccc(F)cc32)c1C` [Sunitinib] the normalised viability was 101% and 105%.
`CC[C@@]1(O)C(=O)OCc2c1cc1n(c2=O)Cc2cc3c(CN(C)C)c(O)ccc3nc2-1` [Topotecan] was tested, and the normalised viability was 105%.

Same assay, conditions: 2.5 nM; incubation time: 72 h
With `c1cc(CN2CCCNCCNCCCNCC2)ccc1CN1CCCNCCNCCCNCC1` [Plerixafor] the normalised viability was 109%.

Same assay, conditions: 10 nM; incubation time: 72 h
In the case of `Nc1ccccc1NC(=O)c1ccc(CNc2nccc(-c3cccnc3)n2)cc1` [Mocetinostat], the normalised viability is reported as 88%.
In the case of `COc1nc(N)nc2c1ncn2[C@@H]1O[C@H](CO)[C@@H](O)[C@@H]1O` [Nelarabine], the normalised viability is reported as 108% and 111%.
In the case of `Cc1ccc(Nc2nccc(N(C)c3ccc4c(C)n(C)nc4c3)n2)cc1S(N)(=O)=O` [Pazopanib], the normalised viability is reported as 86.8%.
With `O=C(CCBr)N1CCN(C(=O)CCBr)CC1` [Pipobroman] the normalised viability was 86.6%.
Molecule `C[C@]12C=CC(=O)C=C1CC[C@@H]1[C@@H]2[C@@H](O)C[C@@]2(C)[C@H]1CC[C@]2(O)C(=O)CO` [Prednisolone] has a normalised viability of 95.7%.

Same assay, conditions: 100 nM; incubation time: 72 h
Work on `O=C1c2c(O)ccc(O)c2C(=O)c2c(NCCNCCO)ccc(NCCNCCO)c21` [Mitoxantrone] yielded a normalised viability of 84.4%.
With `CNC(=O)c1cc(Oc2ccc(NC(=O)Nc3ccc(Cl)c(C(F)(F)F)c3)cc2)ccn1` [Sorafenib] the normalised viability was 96.7% and 103%.
For `CCN(CC)CCNC(=O)c1c(C)[nH]c(/C=C2\C(=O)Nc3ccc(F)cc32)c1C` [Sunitinib], the normalised viability was 91.4% and 96.6%.
`CC[C@@]1(O)C(=O)OCc2c1cc1n(c2=O)Cc2cc3c(CN(C)C)c(O)ccc3nc2-1` [Topotecan] was tested, and the normalised viability was 88.2%.

Same assay, conditions: 250 nM; incubation time: 72 h
For `c1cc(CN2CCCNCCNCCCNCC2)ccc1CN1CCCNCCNCCCNCC1` [Plerixafor], the normalised viability was 104%.

Same assay, conditions: 1000 nM; incubation time: 72 h
Molecule `O=C1c2c(O)ccc(O)c2C(=O)c2c(NCCNCCO)ccc(NCCNCCO)c21` [Mitoxantrone] has a normalised viability of 35.2%.
`Nc1ccccc1NC(=O)c1ccc(CNc2nccc(-c3cccnc3)n2)cc1` [Mocetinostat] was tested, and the normalised viability was 80.9%.
`COc1nc(N)nc2c1ncn2[C@@H]1O[C@H](CO)[C@@H](O)[C@@H]1O` [Nelarabine] was tested, and the normalised viability was 94.9% and 98.1%.
`Cc1ccc(Nc2nccc(N(C)c3ccc4c(C)n(C)nc4c3)n2)cc1S(N)(=O)=O` [Pazopanib] showed a normalised viability of 51.8%.
For `O=C(CCBr)N1CCN(C(=O)CCBr)CC1` [Pipobroman], the normalised viability was 90.4%.
For `C[C@]12C=CC(=O)C=C1CC[C@@H]1[C@@H]2[C@@H](O)C[C@@]2(C)[C@H]1CC[C@]2(O)C(=O)CO` [Prednisolone], the normalised viability was 100%.
For `CNC(=O)c1cc(Oc2ccc(NC(=O)Nc3ccc(Cl)c(C(F)(F)F)c3)cc2)ccn1` [Sorafenib], the normalised viability was 48.2% and 67.9%.
With `CCN(CC)CCNC(=O)c1c(C)[nH]c(/C=C2\C(=O)Nc3ccc(F)cc32)c1C` [Sunitinib] the normalised viability was 62.7% and 68.1%.
Molecule `CC[C@@]1(O)C(=O)OCc2c1cc1n(c2=O)Cc2cc3c(CN(C)C)c(O)ccc3nc2-1` [Topotecan] has a normalised viability of 53.5%.

Same assay, conditions: 2500 nM; incubation time: 72 h
`c1cc(CN2CCCNCCNCCCNCC2)ccc1CN1CCCNCCNCCCNCC1` [Plerixafor] was tested, and the normalised viability was 101%.

Same assay, conditions: 10000 nM; incubation time: 72 h
`Nc1ccccc1NC(=O)c1ccc(CNc2nccc(-c3cccnc3)n2)cc1` [Mocetinostat] gave a normalised viability of 31.6%.
For `COc1nc(N)nc2c1ncn2[C@@H]1O[C@H](CO)[C@@H](O)[C@@H]1O` [Nelarabine], the normalised viability was 103% and 104%.
For `Cc1ccc(Nc2nccc(N(C)c3ccc4c(C)n(C)nc4c3)n2)cc1S(N)(=O)=O` [Pazopanib], the normalised viability was 58.6%.
`O=C(CCBr)N1CCN(C(=O)CCBr)CC1` [Pipobroman] showed a normalised viability of 35.7%.
With `C[C@]12C=CC(=O)C=C1CC[C@@H]1[C@@H]2[C@@H](O)C[C@@]2(C)[C@H]1CC[C@]2(O)C(=O)CO` [Prednisolone] the normalised viability was 96.9%.

— the supplement of paper PMC4862054
